Here are results for 20 compounds from ChEMBL document CHEMBL5512638, “Novel pyrrole based CB2 agonists: New insights on CB2 receptor role in regulating neurotransmitters' tone” (Eur J Med Chem, 2024).

Assay [1] has as its target T1, Cannabinoid receptor 2 (Homo sapiens, UniProt P34972). Kind of assay: Displacement of [3H]CP55940 from recombinant human CB2 receptor expressed in HEK293 cell membrane incubated for 90 mins by competition binding assay. In kind it is cell membranes. The note with it: read-out: IC50. (Loss of bound radioactivity is the signal in a displacement assay; it reports binding, not function.)

Assay [2] addresses T2, Cannabinoid receptor 1 (Homo sapiens, UniProt P21554). In words: Displacement of [3H]CP55940 from recombinant human CB1 receptor expressed in HEK293 cell membrane incubated for 90 mins by competition binding assay. The note with it: read-out: IC50. In kind it is cell membranes.
Assay [3] concerns the target T2, Cannabinoid receptor 1. Kind of assay: Displacement of [3H]CP55940 from recombinant human CB1 receptor expressed in HEK293 cell membrane assessed as inhibition constant incubated for 90 mins by competition binding assay. The settings on record: read-out: Ki. In kind it is cell membranes.
Assay [4] concerns the target T1, Cannabinoid receptor 2. In words: Displacement of [3H]CP55940 from recombinant human CB2 receptor expressed in HEK293 cell membrane assessed as inhibition constant incubated for 90 mins by competition binding assay. It counts as cell membranes. The note with it: read-out: Ki.
In assay [5] the target is T1, Cannabinoid receptor 2. Kind of assay: Agonist activity at human CB2 receptor expressed in CHO-K1 cells assessed as reduction in NKH-477 induced cAMP production by chemiluminescence based cAMP hunter assay. It counts as functional, cell-based.
Assay [6] concerns Mus musculus. In words: Cognitive enhancing activity in scopolamine induced amnesia male C57/BL6J mouse model assessed as latency time to enter novel arm at 1 mg/kg, ip preadministered with compound for 10 mins followed by scopolamine administration for 30 mins and measured after 30 mins by Y-maze test (reference value: 21.93 +/- 0.78 sec). It counts as functional. The settings on record: time 70 min, 1.167 h.

The species named for assay [7] is Homo sapiens. Kind of assay: Selectivity ratio of Ki for displacement of [3H]CP55940 from recombinant human CB2 receptor expressed in HEK293 cell membrane to Ki for displacement of [3H]CP55940 from recombinant human CB1 receptor expressed in HEK293 cell membrane. In kind it is cell membranes.

In general, IC50 refers to the concentration needed to halve the response being measured. As a reminder, the Ki is the dissociation constant of the complex between target and ligand, obtained from inhibition or displacement. As a reminder, the EC50 is the concentration needed to bring the measured effect to its halfway point.

Bounds are passed on as bounds.

T2 sequence (P21554 whole entry): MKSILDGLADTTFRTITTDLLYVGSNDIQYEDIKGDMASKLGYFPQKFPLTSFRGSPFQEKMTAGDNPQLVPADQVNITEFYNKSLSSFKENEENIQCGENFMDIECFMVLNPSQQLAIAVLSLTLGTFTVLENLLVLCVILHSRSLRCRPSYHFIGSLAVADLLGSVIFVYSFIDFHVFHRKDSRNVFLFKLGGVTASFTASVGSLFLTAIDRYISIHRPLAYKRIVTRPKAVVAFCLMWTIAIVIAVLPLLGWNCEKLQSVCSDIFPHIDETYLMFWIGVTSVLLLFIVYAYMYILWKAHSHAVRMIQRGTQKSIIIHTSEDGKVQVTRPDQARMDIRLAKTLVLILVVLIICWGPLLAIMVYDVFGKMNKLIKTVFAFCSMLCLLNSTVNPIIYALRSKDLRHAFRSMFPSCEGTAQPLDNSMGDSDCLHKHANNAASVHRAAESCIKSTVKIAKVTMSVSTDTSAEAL
T1 sequence (P34972 whole entry): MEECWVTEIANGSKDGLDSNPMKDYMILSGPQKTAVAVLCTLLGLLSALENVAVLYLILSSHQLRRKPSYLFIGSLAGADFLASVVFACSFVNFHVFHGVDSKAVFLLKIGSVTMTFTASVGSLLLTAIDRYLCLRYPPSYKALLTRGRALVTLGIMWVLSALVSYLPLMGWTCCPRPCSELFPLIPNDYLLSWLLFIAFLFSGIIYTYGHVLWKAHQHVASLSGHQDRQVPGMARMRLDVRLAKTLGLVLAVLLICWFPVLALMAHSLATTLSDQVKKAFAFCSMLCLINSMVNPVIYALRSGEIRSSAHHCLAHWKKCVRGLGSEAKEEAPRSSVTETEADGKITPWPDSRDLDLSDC

With `Cc1ccc(CNC(=O)c2cccn2Cc2ccc(F)cc2)cc1`, the IC50 in assay [1] and in assay [2] was greater than 10 µM throughout. The Ki in assay [3] and in assay [4] was greater than 10 µM in each case.
Turning to `O=C(NCc1ccccc1)c1cccn1Cc1ccc(F)cc1`, the IC50 in assay [1] is 4.6 µM; in assay [2] it was greater than 10 µM. Moreover, the Ki in assay [3] was greater than 10 µM; in assay [4], 0.706 µM.
Take `O=C(NCCO)[C@@H]1Cc2ccccc2CN1C(=O)c1ccc(O)cc1`: the IC50 in assay [1] and in assay [2] was greater than 10 µM each time. Further, the Ki in assay [3] and in assay [4] was greater than 10 µM each time.
Turning to `O=C(c1ccccc1Cl)c1cccn1CC12CC3CC(CC(C3)C1)C2`, the IC50 in assay [1] is 4.22 µM; in assay [2] it was greater than 10 µM. Moreover, the Ki in assay [3] is greater than 10 µM; in assay [4] it was 0.67 µM.
For `COC(=O)CCCn1cccc1C(=O)c1ccccc1Cl`, the IC50 in assay [1] and in assay [2] was greater than 10 µM throughout. Further, the Ki in assay [3] and in assay [4] was greater than 10 µM each time.
Regarding `CCCCCNC(=O)c1cccn1Cc1ccc(F)cc1`, the IC50 in assay [1] and in assay [2] was greater than 10 µM each time. The inhibitory constant (Ki) in assay [3] and in assay [4] was greater than 10 µM throughout.
Consider `Cc1ccc(Cn2cccc2C(=O)c2ccc(Cl)cc2)cc1`, for which the IC50 in assay [1] and in assay [2] was greater than 10 µM in each case. Also, the Ki in assay [3] and in assay [4] was greater than 10 µM in each case.
Turning to `Cc1ccc(C(=O)c2cccn2S(=O)(=O)c2ccc(C)cc2)cc1`, the IC50 in assay [1] and in assay [2] was greater than 10 µM each time. For the same compound, the Ki in assay [3] and in assay [4] was greater than 10 µM each time.
As for `CC(=O)OCCn1cccc1C(=O)c1ccccc1Cl`, the IC50 in assay [1] and in assay [2] was greater than 10 µM each time. Also, the Ki in assay [3] and in assay [4] was greater than 10 µM throughout.
For the compound `CC(=O)OCCCCn1cccc1C(=O)NCc1ccccc1`, the IC50 in assay [1] and in assay [2] was greater than 10 µM throughout. In addition, the Ki in assay [3] and in assay [4] was greater than 10 µM each time.
Regarding `O=C(NCc1cccc(O)c1)c1cccn1Cc1ccc(F)cc1`, the IC50 in assay [1] and in assay [2] was greater than 10 µM in each case. The Ki in assay [3] and in assay [4] was greater than 10 µM in each case.
Consider `Nc1ccc(CNC(=O)c2cccn2Cc2ccc(F)cc2)cc1`, for which the IC50 in assay [1] and in assay [2] was greater than 10 µM each time. In addition, the inhibitory constant (Ki) in assay [3] and in assay [4] was greater than 10 µM in each case.
As for `CCCC(C)(C)c1ccc2c(c1)OC(C)(C)[C@@H]1CC=C(C)C[C@@H]21`, the EC50 in assay [5] was determined as 90 nM. In addition, the figures for the Ki in assay [3] and in assay [4] were 0.281 µM and 0.005 µM, respectively.
As to `O=C(Nc1cccc(CO)c1)c1cccn1Cc1ccc(F)cc1`, the IC50 in assay [1] was 1.59 µM; in assay [2], greater than 10 µM. For the same compound, the Ki in assay [3] was greater than 10 µM; in assay [4], 0.25 µM.
In the case of `O=C(c1ccc(Cl)cc1)c1cccn1Cc1ccco1`, the IC50 in assay [1] and in assay [2] was greater than 10 µM throughout. In addition, the Ki in assay [3] and in assay [4] was greater than 10 µM in each case.
On to `CC(=O)Oc1ccc(Cn2cccc2C(=O)c2ccccc2Cl)cc1`, for which the IC50 in assay [1] and in assay [2] was greater than 10 µM throughout. For the same compound, the Ki in assay [3] and in assay [4] was greater than 10 µM each time.
For `COc1ccc(C(=O)c2c(C)n(CCN3CCOCC3)c3cc(I)ccc23)cc1`, in assay [6], the Time stood at 9.28 s.
With `CC(=O)Oc1cccc(Cn2cccc2C(=O)c2ccccc2Cl)c1`, the IC50 in assay [1] was 9.83 µM; in assay [2], greater than 10 µM. Also, the inhibition constant (Ki) in assay [3] was greater than 10 µM; in assay [4], 1.56 µM.
As for `O=C(c1ccccc1Cl)c1cccn1CCCCO`, the IC50 in assay [1] and in assay [2] was greater than 10 µM throughout. For the same compound, the Ki in assay [3] and in assay [4] was greater than 10 µM in each case.
With `Cc1ccc(NC(=O)c2cccn2Cc2ccc(F)cc2)cc1`, the IC50 in assay [1] was found to be 1.32 µM; in assay [2], 6.13 µM. For the same compound, the Ki came out at 1.03 µM in assay [3] and 0.27 µM in assay [4]. The Ratio Ki in assay [7] came out at 5.
